This is an account of results in patent publication US8088819B2, “Derivatives of substituted 3-phenyl-1-(phenylthienyl)propan-1-ones and of 3-phenyl-1-(phenylfuranyl) propan-1-ones, preparation and use” (priority 2006, dated 2012).

The target of one series is T1, hPPARdelta (Homo sapiens, UniProt Q03181).
T1 construct: expressed in transfected cells; host or cells: COS-7 (monkey kidney fibroblasts)
T1 sequence (Q03181 211-439 limits assumed): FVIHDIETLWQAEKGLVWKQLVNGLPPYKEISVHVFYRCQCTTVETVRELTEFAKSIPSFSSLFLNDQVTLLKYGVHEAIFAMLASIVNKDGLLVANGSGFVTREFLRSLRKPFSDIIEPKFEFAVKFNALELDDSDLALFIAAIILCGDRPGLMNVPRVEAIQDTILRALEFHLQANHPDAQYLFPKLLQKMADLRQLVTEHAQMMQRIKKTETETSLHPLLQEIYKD
Description: PPAR activation: Gal4-hPPARδ chimera luciferase transactivation in COS-7 cells, Method 2. Conditions: COS-7, 24 h; for EC50: 1% Ultroser; for Emax: maximum percentage response relative to the reference GW501516, read-out: hPPARdelta % max. It is filed as cell-based. In short, it runs like this:
(§1)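 COS-7 cells were transfected with Gal4-PPAR LBD chimera plus Gal4(RE)_TkpGL3 luciferase reporter (1/10) and seeded serum-free for 4 h. Compounds at 10^−5 to 100 μm were applied for 24 h at 37° C in 1% lipid-free synthetic serum. Luciferase was read after lysis, and EC50 derived.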

Series [1] concerns target genes of PPARδ in murine myocytes (C2C12). Description: Expression of target genes of PPARδ (PDK4, CPT1b, UCP2, UCP3) in murine myocytes, quantitative RT-PCR. Conditions: murine myocytes in vitro. It is filed as cell-based. An excerpt:
It is established that regulation of the expression of these genes is directly controlled by PPARδ in this cell type. The more the expression of the genes is increased, the greater the stimulating action of the compound according to the invention on metabolism in the muscle cells.
Cells from the murine cell line C2C12 (obtained from ECACC) are cultivated in DMEM medium (Gibco; 41965-039) with addition of 1% L-glutamine (Gibco; 25030), 1% of penicillin/streptomycin (VWR; BWSTL0022/100) and 10% decomplemented fetal calf serum (FCS. Gibco; 10270-106).
The cells are seeded on 24-well plates at a density of 50·10^3 cells/well. At confluence, the medium is replaced with a differentiating medium (basal medium with addition of 2% of horse serum (Gibco; 26050-088)), then incubated at 37° C. and 5% CO2 for 4 days in order to differentiate them to myocytes.
After 5 days of differentiation, the cells are put in a deprivation medium (basal medium without serum) for 6 hours. The cells are then treated with the compounds according to the invention in the deprivation medium. Compounds 2, 4, 7, 11, 39, 40, 46, 49 and 72 were in dose effect, corresponding to 1×, 10× and 100× their EC50 PPARδ. The compounds according to the invention were dissolved in dimethylsulfoxide (DMSO, Sigma; D5879). The cells were treated for 24 h at 37° C., 5% CO2. The effect of the compounds according to the invention was compared with the effect of DMSO alone.
After treatment, the total RNA is extracted from the cells using the NucleoSpine® 96 RNA kit (Macherey Nagel, Hoerdt, France) following the manufacturer's instructions.
1 μg of total RNA (quantified based on the UV spectrophotometer reading) was then reverse-transcribed to complementary DNA by reaction for 1 hour at 37° C. in a total volume of 30 μl containing buffer 1× (Invitrogen), 1.5 mM of DTT, 0.18 mM of dNTPs (Promega), 200 ng of pdN6 (Amersham), 30 U of RNase inhibitor (Promega) and 1 μl of MMLV-RT (Invitrogen).
The quantitative PCR experiments were carried out using the MyiQ Single-Color Real-Time PCR Detection System (Biorad, Marnes-la-Coquette, France) and were performed using the iQ SYBR Green Supermix kit following the supplier's recommendations, in 96-well plates, on 5 μl of diluted reverse-transcription reaction mixtures with a hybridization temperature of 60° C. Primer pairs specific to the PDK4, CPT1b, UCP2 and UCP3 genes under investigation were used:
The amount of fluorescence emitted is directly proportional to the amount of complementary DNA present at the start of the reaction and amplified during PCR. For each target investigated, a range is produced by successive dilutions of a pool constituted of a few microliters of various reverse-transcription reaction mixtures. The relative expression levels of each target are thus determined using the efficacy curves obtained with the points in the range.
The levels of expression of the genes of interest were then normalized relative to the level of expression of the reference gene 36B4 (whose specific primers are: sense primer: 5′-[…]-3′ (SEQ ID No. 19) and antisense primer: 5′-[…]-3′ (SEQ ID No. 20)). The induction factor, i.e. the ratio of the relative signal (induced by the compound according to the invention) to the mean of the relative values of the control group, was then calculated. The higher this factor, the greater the activating character of the compounds according to the invention with respect to gene expression. The final result is represented as the mean of the induction values in each experimental group.

A further series concerns the target T2, hPPARgamma (Homo sapiens, UniProt P37231).
T2 construct: expressed in transfected cells; host or cells: COS-7 (monkey kidney fibroblasts)
T2 sequence (P37231 238-503 limits assumed): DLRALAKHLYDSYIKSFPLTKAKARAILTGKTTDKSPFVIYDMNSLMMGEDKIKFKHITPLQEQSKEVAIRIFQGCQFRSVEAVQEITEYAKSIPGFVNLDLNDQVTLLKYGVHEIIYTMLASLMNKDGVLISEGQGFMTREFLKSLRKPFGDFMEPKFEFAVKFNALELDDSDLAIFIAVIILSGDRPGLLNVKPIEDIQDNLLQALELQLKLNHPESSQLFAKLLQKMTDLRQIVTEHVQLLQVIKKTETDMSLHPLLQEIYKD
Description: PPAR activation: Gal4-hPPARγ chimera luciferase transactivation in COS-7 cells, Method 2. It is filed as cell-based. Conditions: COS-7, 24 h, Method 2; for Emax: maximum percentage response relative to the reference rosiglitazone, read-out: hPPARgamma % max; for EC50: 1% Ultroser, read-out: hPPARgamma EC50. The method, boiled down:
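Transactivation by a Gal4 DNA-binding domain–hPPARγ ligand-binding domain chimera with a Gal4(RE)-luciferase reporter, transfected into COS-7 cells (plasmid ratio 1/10).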

The next series concerns the target T3, hPPARalpha (Homo sapiens, UniProt Q07869).
T3 construct: expressed in transfected cells; host or cells: COS-7 (monkey kidney fibroblasts)
T3 sequence (Q07869 239-466 limits assumed): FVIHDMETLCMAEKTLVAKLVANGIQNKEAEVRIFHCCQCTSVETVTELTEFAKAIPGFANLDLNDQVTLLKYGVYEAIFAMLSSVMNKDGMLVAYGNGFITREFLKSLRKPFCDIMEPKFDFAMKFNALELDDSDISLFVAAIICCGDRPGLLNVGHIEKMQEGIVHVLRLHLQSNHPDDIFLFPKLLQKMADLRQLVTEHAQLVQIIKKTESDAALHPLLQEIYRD
Briefly: PPAR activation: Gal4-hPPARα chimera luciferase transactivation in COS-7 cells, Method 2. It is filed as cell-based. Conditions: COS-7, 24 h; for EC50: 1% Ultroser; for Emax: maximum percentage response relative to the reference phenofibric acid, read-out: hPPARalpha % max. In short, it runs like this: as §1

For `CC(C)(Oc1ccc(CCC(OCc2cccnc2)c2ccc(-c3ccc(C(F)(F)F)cc3)s2)c(Cl)c1Cl)C(=O)O` (stereo not shown) [Compound 39, 2-(2,3-dichloro-4-(3-(pyridin-3-ylmethoxy)-3-(5-(4-(trifluoromethyl)phenyl)thien-2-yl)propyl)phenoxy)-2-methylpropanoic acid], the melting point (usually the temperature, or range, at which the solid turns liquid) fell in the range of 75 to 77 °C. Further, on hPPARdelta, the EC50 (commonly the concentration giving half of the maximal effect) was determined as 0.006 µM and the Emax was 90%. In addition, the “expression of genes involved in carbohydrate and lipid metabolism and in thermoregulation” value in series [1] was “stimulating effects”. Further, at hPPARgamma, the Emax was 52% and the concentration for a half-maximal effect (EC50) was found to be 0.55 µM. For the same compound, at hPPARalpha, the EC50 was 1.01 µM and the Emax was determined as 36%.
Turning to `COC(CCc1ccc(OC(C)(C)C(=O)O)c(Cl)c1Cl)c1ccc(-c2ccc(C(F)(F)F)cc2)s1` (stereo not shown) [Compound 40, 2-(2,3-dichloro-4-(3-methoxy-3-(5-(4-(trifluoromethyl)phenyl)-thien-2-yl)propyl)phenoxy)-2-methylpropanoic acid], the melting point lay within 46 to 48 °C. Besides, on hPPARdelta, the EC50 stood at 0.005 µM and the Emax is 78.3%. In addition, the “expression of genes involved in carbohydrate and lipid metabolism and in thermoregulation” value in series [1] was “stimulating effects”. Also, at hPPARgamma, the Emax stood at 32% and the half-maximal effective concentration (EC50) came out at 0.99 µM. Further, on hPPARalpha, the concentration giving a half-maximal response (EC50) was 0.59 µM and the Emax is 35%.
